Results from patent publication US20070032502A1, “Quinazoline derivatives useful in cancer treatment” (Schering Corporation, priority 2005, published 2007).
Like-named read-outs stand apart in the source and are kept apart here. Values belong to the compound of their own block, whether it stands above or below them.

Experiments:
[1] = system: MB468; assay: Proliferation assay (Calcein AM viability, 72 hours); format: cell-based
Description: This assay measures the growth suppression effects of small molecules in cells with mutant p53 vs. p53 null background. It uses Calcein AM to measure cellular viability. Cells (p53 null and mutant) are harvested and plated at 5000 cells per well in a 96-well tissue culture plate. The volume of cells in growth media is 100 µl. Serial dilutions (2× concentration) of compounds are then made and transferred to the plate of cells. The volume of compounds in the growth media is 100 μL. This dilution of compound with cells gives a 1× final dilution of compound (200 μL total volume). Plates are then incubated at 37° C. for 72 hours. Media is then poured off and Calcein AM is added at the appropriate concentration and the plates are incubated in the dark for 15 minutes and read for fluorescence. […] Compounds having EC50 values of 6 uM or higher have been assigned the letter “D”. These letter rating has been used throughout in the data tables above.

[2] = biological target: GST-p53 DNA binding domain (aa 92-aa 312) (Homo sapiens, UniProt P04637); assay: Scintillation Proximity Assay (SPA), displacement of 3H STANDARD COMPOUND; details: for remaining activity at 2 µg/mL: 1 h
GST-p53 DNA binding domain (aa 92-aa 312), sequence (P04637 92-312): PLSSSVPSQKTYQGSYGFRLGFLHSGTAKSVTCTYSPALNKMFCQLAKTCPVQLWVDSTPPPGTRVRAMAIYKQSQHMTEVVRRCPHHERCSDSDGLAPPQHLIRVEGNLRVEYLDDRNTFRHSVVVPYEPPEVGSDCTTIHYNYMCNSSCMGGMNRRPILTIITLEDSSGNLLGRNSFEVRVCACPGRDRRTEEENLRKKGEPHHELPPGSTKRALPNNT
Text: Most of the oncogenic mutants of the tumor suppressor protein p53 lack sequence specific DNA binding activity at physiological temperature due to conformational changes in the DNA binding domain. Small molecules and peptide which bind to the p53 DNA binding domain stabilize the conformation and restore DNA binding activity to mutant p53 protein (Science 286, 2507-2510, 1999; PNAS, 99, 937-942, 2002). Using ^3H STANDARD COMPOUND (which is ^3H of the compound #1 of the present invention; the * Carbon atom is the one labeled; structure shown below), [drawing 2234] a radio labeled small molecule which binds to p53, and the GST-p53 DNA binding domain (aa 92-aa 312), we have developed a quantitative screening assay. The assay is based on Scintillation Proximity Assay (SPA) technology, developed by Amersham Biosciences to measure molecular interactions. Briefly, the complex of GST-p53, ^3H STANDARD and Glutathione-SPA beads (Amersham Biosciences) are incubated with mixing for 1 hr at room temperature in the presence of the novel compounds to be screened. The signal is read on Microbeta. The compounds which have the ability to displace ^3H STANDARD COMPOUND are selected. Such molecules will stabilize the conformation and restore DNA binding activity to mutant p53 protein.
The above assay was used to determine the ability of the compounds of this invention to restore DNA binding activity to mutant p53 and the results for selected compounds have been given above in various tables.
A letter rating corresponding to % Residual total binding (T) @ 2 ug/mL of drug (i.e., compound of the present invention) from this assay have been assigned as follows: Compounds having % Residual T values of from 0% to less than 20% have been assigned the letter “A”. Compounds having % Residual T values of from 20% to less than 40% have been assigned the letter “B”. Compounds having % Residual T values of from 40% to less than 80% have been assigned the letter “C”. Compounds having % Residual T values of 80% or higher have been assigned the letter “D”. The exact % Residual T values @ 2 ug/mL for some illustrative compounds are shown below: […]

[3] = 72 h, MB468 cells, 72 hours, read-out: PROLIFERATION ASSAY EC50 MB468
[4] = MB468, read-out: PROLIFERATION ASSAY EC50 MB468
[5] = read-out: SPA ASSAY (% residual T @ 2 ug/mL of drug)
[6] = MB168 [sic], read-out: PROFILERATION ASSAY EC50 MB168
[7] = 2 ug/mL of drug, lower is better, read-out: % Residual T @ 2 ug/mL rating according to scintillation proximity assay (SPA)
[8] = MB468 cells, read-out: PROFILE-RATION ASSAY EC50 MB468
[9] = 2 ug/mL of drug, lower is better, read-out: SPA ASSAY % Residual T @ 2 ug/mL of drug (Average of)

Compound: COc1ccc(/C=C/c2nc(NCCCN(C)C)c3ccccc3n2)cc1 [CP-31398, reference compound]
EC50 [1, 3]: 4.1 µM

Compound: Clc1ccc(C(c2ccc(Cl)cc2)N2CCN(Cc3nc(N4CCc5ccccc5C4)c4ccccc4n3)CC2)cc1 [Example 30-12]
EC50 [1, 4]: > 6 µM

remaining activity at 2 µg/mL [2, 5]: > 80%
Compound: Clc1ccc(C(c2ccc(Cl)cc2)N2CCN(Cc3nc(N4CCOCC4)c4ccccc4n3)CC2)cc1 [Example 30-3]
EC50 [1, 4]: > 6 µM

Compound: CN(C)CCCNc1nc(CN2CCN(C(=O)Nc3ccc(C#N)cc3)CC2)nc2ccccc12 [Example 28-13]
SPA ASSAY (% Residual T @ 2 ug/mL of drug (average of)) ([2]; 2 ug/mL of drug): C (Compounds having % Residual T values of from 40% to less than 80% have been assigned the letter “C”)
EC50 [1, 6]: > 6 µM

remaining activity at 2 µg/mL [2, 5]: 40 to 80%
Compound: O=c1[nH]c2ccccc2n1C1CCN(c2nc(CN3CCN(C(c4ccc(Cl)cc4)c4ccc(Cl)cc4)CC3)nc3ccccc23)CC1 [Example 30-30]
EC50 [1, 4]: 4 to 6 µM

remaining activity at 2 µg/mL [2, 7]: 20 to 40%
Compound: CN(C)CCCNc1nc(CN2CCN(C(c3ccccc3)c3ccc(OC(F)(F)F)cc3)CC2)nc2ccccc12 (single isomer, unassigned; (+)) [11 isomer 1, (+)-N,N-DIMETHYL-N′-[2-{4-[PHENYL-(4-TRIFLUOROMETHOXYPHENYL)METHYL]-PIPERAZIN-1-YLMETHYL}QUINAZOLIN-4-YL]PROPANE-1,3-DIAMINE]
EC50 ([1]; 72 h, MB468 cells, 72 hours, read-out: EC50 rating according to the proliferation assay (MB468)): < 2 µM

Compound: CCC(C)(C)C1CCC(N2CCN(Cc3nc(NCCCN(C)C)c4ccccc4n3)CC2)C1 (stereo not drawn) [Example 25-73]
SPA Assay (% residual T @ 2 ug/mL of drug) ([2]; 2 ug/mL of drug): C (Compounds having % Residual T values of from 40% to less than 80% have been assigned the letter “C”)
EC50 [1, 8]: 4 to 6 µM

remaining activity at 2 µg/mL [2, 5]: > 80%
Compound: OC1CCN(c2nc(CN3CCN(C(c4ccc(Cl)cc4)c4ccc(Cl)cc4)CC3)nc3ccccc23)CC1 [Example 30-27]
EC50 [1, 4]: 4 to 6 µM

remaining activity at 2 µg/mL [2, 7]: > 80%
Compound: CC(C)COC(=O)[C@H](CCCN(C)C)Nc1nc(CN2CCN(C(c3ccc(Cl)cc3)c3ccc(Cl)cc3)CC2)nc2ccccc12 [Example 45, 2(S)-(−)-2-(2-{4-[BIS-(4-CHLOROPHENYL)METHYL]PIPERAZIN-1-YLMETHYL}QUINAZOLIN-4-YLAMINO)-5-DIMETHYLAMINOPENTANOIC ACID ISOBUTYL ESTER]

remaining activity at 2 µg/mL [2, 5]: > 80%
Compound: COC(=O)C1CCN(c2nc(CN3CCN(C(c4ccc(Cl)cc4)c4ccc(Cl)cc4)CC3)nc3ccccc23)CC1 [Example 30-29]
EC50 [1, 4]: 4 to 6 µM

remaining activity at 2 µg/mL [2, 9]: 38.1%
Compound: CCC(C)(C)C1CCC(N2CCN(Cc3nc(NCCCN(C)C)c4ccccc4n3)CC2)CC1 (stereo not drawn) [Example 25-90]
SPA Assay (% residual T @ 2 ug/mL of drug) ([2]; 2 ug/mL of drug): B (Compounds having % Residual T values of from 20% to less than 40% have been assigned the letter “B”)
EC50 [1, 3]: 2 µM
EC50 [1, 8]: 2 to 4 µM

Compound: CN(C)CCCNc1nc(CN2CCN(C(c3ccccc3)c3ccc(OC(F)(F)F)cc3)CC2)nc2ccccc12 (stereo not drawn) [Example 11-2]
EC50 [1, 3]: 1.6 µM

remaining activity at 2 µg/mL [2, 9]: 37.9%
Compound: CN(C)CCCNc1nc(CN2CCN(Cc3cccc4cc[nH]c34)CC2)nc2ccccc12 [Example 25-29]
SPA Assay (% residual T @ 2 ug/mL of drug) ([2]; 2 ug/mL of drug): B (Compounds having % Residual T values of from 20% to less than 40% have been assigned the letter “B”)
EC50 [1, 8]: 4 to 6 µM

remaining activity at 2 µg/mL [2, 9]: 29.9%
Compound: CN(C)CCCNc1nc(CN2CCN(C(=O)Nc3ccc(Cl)c(Cl)c3)CC2)nc2ccccc12 [Example 28-39]
SPA ASSAY (% Residual T @ 2 ug/mL of drug (average of)) ([2]; 2 ug/mL of drug): B (Compounds having % Residual T values of from 20% to less than 40% have been assigned the letter “B”)
EC50 [1, 6]: 4 to 6 µM

remaining activity at 2 µg/mL [2, 7]: 40 to 80%
Compound: CN(C)CC[C@H](Nc1nc(CN2CCN(C(c3ccc(Cl)cc3)c3ccc(Cl)cc3)CC2)nc2ccccc12)C(N)=O [Example 43, 2(S)-(−)-2-(2-{4-[BIS-(4-CHLOROPHENYL)METHYL]PIPERAZIN-1-YLMETHYL}QUINAZOLIN-4-YLAMINO)-4-DIMETHYLAMINOBUTYRAMIDE]

Compound: CN(C)CCCOc1nc(CN2CCN(C(c3ccc(Cl)cc3)c3ccc(Cl)cc3)CC2)nc2ccccc12 [Example 16, [3-(2-{4-[BIS-(4-CHLOROPHENYL)METHYL]PIPERAZIN-1-YLMETHYL}QUINAZOLIN-4-YLOXY)PROPYL]DIMETHYLAMINE]
remaining activity at 2 µg/mL ([2]; read-out: % Residual T @ 2 ug/mL rating according to scintillation proximity assay (SPA)): > 80%
EC50 ([1]; 72 h, read-out: EC50 rating according to the proliferation assay (MB468)): > 6 µM

Compound: Clc1ccc(C(c2ccc(Cl)cc2)N2CCN(Cc3nc(N4CCN(Cc5ccccc5)CC4)c4ccccc4n3)CC2)cc1 [Example 30-20]
EC50 [1, 4]: 2 to 4 µM

remaining activity at 2 µg/mL [2, 9]: 38%
Compound: COc1ccc(NC(=O)N2CCN(Cc3nc(NCCCN(C)C)c4ccccc4n3)CC2)cc1 [Example 28-20]
SPA ASSAY (% Residual T @ 2 ug/mL of drug (average of)) ([2]; 2 ug/mL of drug): B (Compounds having % Residual T values of from 20% to less than 40% have been assigned the letter “B”)
EC50 [1, 6]: > 6 µM

Compound: Clc1ccc(C(c2ccc(Cl)cc2)N2CCN(Cc3nc(N4CCCCCC4)c4ccccc4n3)CC2)cc1 [Example 30-5]
EC50 [1, 4]: 2 to 4 µM

Compound: CN(Cc1ccccc1)c1nc(CN2CCN(C(c3ccc(Cl)cc3)c3ccc(Cl)cc3)CC2)nc2ccccc12 [Example 30-11]
EC50 [1, 4]: > 6 µM

Compound: Cc1cc(C)c(NC(=O)N2CCN(Cc3nc(NCCCN(C)C)c4ccccc4n3)CC2)c(C)c1 [Example 28-4]
SPA ASSAY (% Residual T @ 2 ug/mL of drug (average of)) ([2]; 2 ug/mL of drug): C (Compounds having % Residual T values of from 40% to less than 80% have been assigned the letter “C”)
EC50 [1, 6]: 4 to 6 µM

Compound: CN(CCC1C=Nc2ccccc21)c1nc(CN2CCN(C(c3ccc(Cl)cc3)c3ccc(Cl)cc3)CC2)nc2ccccc12 (stereo not drawn) [Example 30-18]
EC50 [1, 4]: 2 to 4 µM

remaining activity at 2 µg/mL [2, 9]: 39.5%
Compound: COC(=O)[C@@H](Nc1nc(CN2CCN(C(=O)Nc3ccc(C(C)C)cc3)CC2)nc2ccccc12)C(C)C [Example 20-29]
SPA Assay (% residual T @ 2 ug/mL of drug) ([2]; 2 ug/mL of drug): B (Compounds having % Residual T values of from 20% to less than 40% have been assigned the letter “B”)
EC50 ([1]; MB468 cells, read-out: PROLIFERATION ASSAY EC50 MB468): 4 to 6 µM

remaining activity at 2 µg/mL [2, 7]: 40 to 80%
Compound: CCOC(=O)[C@H](CCN(C)C)Nc1nc(CN2CCN(C(c3ccc(Cl)cc3)c3ccc(Cl)cc3)CC2)nc2ccccc12 [Example 44, 2(S)-(+)-2-(2-{4-[bis-(4-chlorophenyl)methyl]piperazin-1-ylmethyl}quinazoline-4-ylamino)-4-dimethylaminobutyric acid ethyl ester]

remaining activity at 2 µg/mL [2, 5]: 40 to 80%
Compound: CN(C)[C@@H]1CCN(c2nc(CN3CCN(C(c4ccc(Cl)cc4)c4ccc(Cl)cc4)CC3)nc3ccccc23)C1 [Example 30-26]
EC50 [1, 4]: > 6 µM

remaining activity at 2 µg/mL [2, 7]: 40 to 80%
Compound: CN(C)CCCC[C@H](Nc1nc(CN2CCN(C(c3ccc(Cl)cc3)c3ccc(Cl)cc3)CC2)nc2ccccc12)C(N)=O [Example 47, 2(S)-(+)-2-(2-{4-[BIS-(4-CHLOROPHENYL)METHYL]PIPERAZIN-1-YLMETHYL}QUINAZOLIN-4-YLAMINO)-6-DIMETHYLAMINOHEXANAMIDE]

remaining activity at 2 µg/mL [2, 7]: > 80%
Compound: CN(C)CCC[C@H](Nc1nc(CN2CCN(C(c3ccc(Cl)cc3)c3ccc(Cl)cc3)CC2)nc2ccccc12)C(N)=O [Example 46, 2(S)-(+)-2-(2-{4-[BIS-(4-CHLOROPHENYL)METHYL]PIPERAZIN-1-YLMETHYL}QUINAZOLIN-4-YLAMINO)-5-DIMETHYLAMINOPENTANAMIDE]

Compound: Clc1ccc(C(c2ccc(Cl)cc2)N2CCN(Cc3nc(N4CCN(c5ccccc5)CC4)c4ccccc4n3)CC2)cc1 [Example 30-15]
EC50 [1, 4]: 4 to 6 µM

Compound: Clc1ccc(C(c2ccc(Cl)cc2)N2CCN(Cc3nc(N4CCN(c5ncccn5)CC4)c4ccccc4n3)CC2)cc1 [Example 30-17]
EC50 [1, 4]: > 6 µM

Compound: Clc1ccc(C(c2ccc(Cl)cc2)N2CCN(Cc3nc(N4CCC(Cc5ccccc5)CC4)c4ccccc4n3)CC2)cc1 [Example 30-19]
EC50 [1, 4]: 4 to 6 µM
